Results taken from ChEMBL document CHEMBL3351842, “Synthesis and biological characterization of new aryloxyindole-4,9-diones as potent trypanosomicidal agents” (Bioorg Med Chem Lett, 2014).
pIC50: −log10 of the molar value.

How the values were obtained:
[1] = system: Trypanosoma cruzi; test: Trypanocidal activity against Trypanosoma cruzi Y epimastigotes […] assessed as growth inhibition of parasite at 10 uM measured on day 5; assay type: functional; settings: 120 h, read-out: GI
[2] = system: Trypanosoma cruzi; test: Trypanocidal activity against Trypanosoma cruzi Y epimastigotes […] assessed as growth inhibition of parasite measured on day 5; assay type: functional, organism-based; settings: 120 h
[3] = Selectivity index, ratio of IC50 for mouse J774A cells to IC50 for Trypanosoma cruzi Y epimastigotes; assay type: toxicity, cell-based; settings: J774A cells versus Trypanosoma cruzi Y epimastigotes, read-out: Ratio IC50
[4] = system: J774; test: Cytotoxicity against mouse J774 cells assessed as cell viability after 48 hrs by MTT assay; assay type: cell-based; settings: J774, 48 h
[5] = system: Trypanosoma cruzi; test: microbe, parasite or virus in culture; settings: Y, J774, in Mus musculus, 120 h, read-out: GI
Description: Trypanocidal activity against Trypanosoma cruzi Y epimastigotes infected in mouse J774 cells assessed as growth inhibition of parasite at 5 uM measured on day 5

SMILES	inhibition of growth at 10 µM [1] [%]	pIC50 [2]	selectivity ratio [3]	pIC50 [4]	inhibition of growth at 5 µM [5] [%]
O=C1C=C(Oc2ccccc2)C(=O)c2ccccc21	87.2	7.30	250	4.90	
CCOC(=O)c1cc2c(OC)cc(Br)c(OC)c2[nH]1	26.9				
CCOC(=O)c1cc2c(OC)cc(Br)c(OC)c2n1CC	2.9				
CCOC(=O)c1cc2c(n1CC)C(=O)C(Br)=CC2=O	97.1	6.28			
CCOC(=O)c1cc2c(n1CC)C(=O)C(Oc1ccccc1)=CC2=O	84.7	6.66	100	4.66	
CCOC(=O)c1cc2c(n1CC)C(=O)C(Oc1ccc(C)cc1)=CC2=O	92.1	7.70			
CCOC(=O)c1cc2c(n1CC)C(=O)C(Oc1ccccc1C)=CC2=O	100	6.85	89.3	4.90	
CCOC(=O)c1cc2c(n1CC)C(=O)C(Oc1ccc(OC)cc1)=CC2=O	90.5	7.70	625	4.90	
CCOC(=O)c1cc2c(n1CC)C(=O)C(Oc1ccc(Cl)cc1)=CC2=O	94.6	6.89			
CC1CS(=O)(=O)CCN1/N=C/c1ccc([N+](=O)[O-])o1 (configuration not stated) [NIFURTIMOX]		5.15	40		49.9
